This note sets out measurements from US9556190B2, “Piperidinyloxy lactone orexin receptor antagonists” (MERCK SHARP & DOHME CORP., priority 2013, dated 2017).

Molecules are shown by their SMILES.

In one assay the target is human orexin-2 receptor (Homo sapiens (Human), UniProt O43614). In words: FLIPR Ca2+ Flux Assay, CHO cells expressing orexin-2 receptor. The format is cell-based. To be noted: 70 pM Ala-6,12 orexin-A agonist, read-out: hOX2R FLIPR IC50. The protocol: The utility of the compounds in accordance with the present invention as orexin receptor OX1R and/or OX2R antagonists may be readily determined without undue experimentation by methodology well known in the art, including the “FLIPR Ca^2+ Flux Assay” (Okumura et al., Biochem. Biophys. Res. Comm. 280:976-981, 2001). In a typical experiment the OX1 and OX2 receptor antagonistic activity of the compounds of the present invention was determined in accordance with the following experimental method. For intracellular calcium measurements, Chinese hamster ovary (CHO) cells expressing the rat orexin-1 receptor or the human orexin-2 receptor, are grown in Iscove's modified DMEM containing 2 mM L-glutamine, […], 1% hypoxanthine-thymidine supplement, 100 U/ml penicillin, 100 μg/ml streptomycin and 10% heat-inactivated fetal calf serum (FCS). The cells are seeded at 20,000 cells/well into Becton-Dickinson black 384-well clear bottom sterile plates coated with poly-D-lysine. All reagents were from GIBCO-Invitrogen Corp. The seeded plates are incubated overnight at 37° C. and 5% CO2. Ala-6,12 human orexin-A as the agonist is prepared as a 1 mM stock solution in 1% bovine serum albumin (BSA) and diluted in assay buffer (HBSS containing 20 mM HEPES, 0.1% BSA and 2.5 mM probenecid, pH7.4) for use in the assay at a final concentration of 70 pM. Test compounds are prepared as 10 mM stock solution in DMSO, then diluted in 384-well plates, first in DMSO, then assay buffer. On the day of the assay, cells are washed 3 times with 100 μl assay buffer and then incubated for 60 min (37° C., 5% CO2) in 60 μl assay buffer containing 1 μM Fluo-4AM ester, 0.02% pluronic acid, and 1% BSA. The dye loading solution is then aspirated and cells are washed 3 times with 100 μl assay buffer. 30 μl of that same buffer is left in each well. Within the Fluorescent Imaging Plate Reader (FLIPR, Molecular Devices), test compounds are added to the plate in a volume of 25 μl, incubated for 5 min and finally 25 μl of agonist is added. Fluorescence is measured for each well at 1 second intervals for 5 minutes and the height of each fluorescence peak is compared to the height of the fluorescence peak induced by 70 pM Ala-6,12 orexin-A with buffer in place of antagonist. For each antagonist, IC50 value (the concentration of compound needed to inhibit 50% of the agonist response) is determined. Alternatively, compound potency can be assessed by a radioligand binding assay (described in Bergman et. al. Bioorg. Med. Chem. Lett. 2008, 18, 1425-1430) in which the inhibition constant (Ki) is determined in membranes prepared from CHO cells expressing either the OX1 or OX2 receptor. The intrinsic orexin receptor antagonist activity of a compound which may be used in the present invention may be determined by these assays.
human orexin-2 receptor, sequence (O43614 whole entry): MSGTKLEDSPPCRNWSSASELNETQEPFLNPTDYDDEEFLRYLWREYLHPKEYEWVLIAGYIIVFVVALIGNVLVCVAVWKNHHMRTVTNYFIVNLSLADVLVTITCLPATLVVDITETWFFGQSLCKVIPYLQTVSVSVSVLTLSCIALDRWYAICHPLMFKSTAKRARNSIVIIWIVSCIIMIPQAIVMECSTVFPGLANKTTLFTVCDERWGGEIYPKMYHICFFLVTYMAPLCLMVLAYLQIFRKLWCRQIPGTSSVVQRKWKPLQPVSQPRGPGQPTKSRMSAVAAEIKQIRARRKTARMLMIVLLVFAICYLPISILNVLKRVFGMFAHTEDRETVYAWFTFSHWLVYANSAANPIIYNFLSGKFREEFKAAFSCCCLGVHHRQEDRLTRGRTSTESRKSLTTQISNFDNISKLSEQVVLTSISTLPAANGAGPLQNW

Another assay concerns the target hOX1R (Homo sapiens, UniProt O43613). In words: FLIPR Ca2+ Flux Assay, CHO cells expressing orexin-1 receptor. Conditions: 70 pM Ala-6,12 orexin-A agonist. Type of assay: cell-based.

With `C[C@@H]1CC[C@@H](Oc2nccc3c2C(=O)OC3(C)C)CN1C(=O)c1c(F)cccc1-n1nccn1` [Example 2, 4-{[(3R,6R)-1-{[2-Fluoro-6-(2H-1,2,3-triazol-2-yl)phenyl]carbonyl}-6-methylpiperidin-3-yl]oxy}-1,1-dimethylfuro[3,4-c]pyridin-3(1H)-one], the half-maximal inhibitory concentration (IC50) turned out to be 44 nM at human orexin-2 receptor and 10000 nM at hOX1R.
For `C[C@@H]1CC[C@@H](Oc2nccc3c2C(=O)OC3(C)C)CN1C(=O)c1ccc(F)cc1-c1ncccn1` [Example 23, 4-({(3R,6R)-1-[(4-fluoro-2-pyrimidin-2-ylphenyl)carbonyl]-6-methylpiperidin-3-yl}oxy)-1,1-dimethylfuro[3,4-c]pyridin-3(1H)-one], the IC50 was found to be 420 nM on human orexin-2 receptor and 10000 nM at hOX1R.
For `C[C@@H]1CC[C@@H](Oc2nccc3c2COC3=O)CN1C(=O)c1cscc1-n1nccn1` [Example 30, 4-{[(3R,6R)-6-methyl-1-{[4-(2H-1,2,3-triazol-2-yl)-thiophen-3-yl]car-bonyl}piperidin-3-yl]oxy}furo[3,4-c]pyridin-1(3H)-one] the same measures were 26 nM and 10000 nM.
Take `C[C@@H]1CC[C@@H](Oc2nccc3c2COC3=O)CN1C(=O)c1ccsc1-c1ncccn1` [Example 37, 4-({(3R,6R)-6-methyl-1-[(2-pyrimidin-2-ylthiophen-3-yl)carbonyl]piperidin-3-yl}oxy)furo[3,4-c]pyridin-1(3H)-one]: the IC50 on human orexin-2 receptor was found to be 27 nM; on hOX1R, 6160 nM.
Consider `Cc1cccc(C(=O)N2C[C@H](Oc3nccc4c3C(=O)OC4(C)C)CC[C@H]2C)c1-n1nccn1` [Example 8, 1,1-dimethyl-4-{[(3R,6R)-6-methyl-1-{[3-methyl-2-(2H-1,2,3-triazol-2-yl)phenyl]carbonyl}piperidin-3-yl]oxy}furo[3,4-c]pyridin-3(1H)-one], for which the IC50 was determined as 43 nM on human orexin-2 receptor and 3090 nM on hOX1R.
